Reference: US20110195950A1, “Organic Compounds” (NOVARTIS AG, priority 2007, published 2011)

Assays:
[1] = molecular target: T1, alpha2 subunit of the GABA-A receptor together with a beta and a gamma subunit (Homo sapiens, UniProt P47869); experiment: GABA-A receptor modulation, voltage-sensitive dye fluorescence assay (alpha2); format: cell-based; conditions: transfected eukaryotic cell line; sub-maximal concentration of GABA; fluorescent signal of voltage-sensitive dye
T1 construct: expressed in transfected cells
T1 sequence (P47869 29-451): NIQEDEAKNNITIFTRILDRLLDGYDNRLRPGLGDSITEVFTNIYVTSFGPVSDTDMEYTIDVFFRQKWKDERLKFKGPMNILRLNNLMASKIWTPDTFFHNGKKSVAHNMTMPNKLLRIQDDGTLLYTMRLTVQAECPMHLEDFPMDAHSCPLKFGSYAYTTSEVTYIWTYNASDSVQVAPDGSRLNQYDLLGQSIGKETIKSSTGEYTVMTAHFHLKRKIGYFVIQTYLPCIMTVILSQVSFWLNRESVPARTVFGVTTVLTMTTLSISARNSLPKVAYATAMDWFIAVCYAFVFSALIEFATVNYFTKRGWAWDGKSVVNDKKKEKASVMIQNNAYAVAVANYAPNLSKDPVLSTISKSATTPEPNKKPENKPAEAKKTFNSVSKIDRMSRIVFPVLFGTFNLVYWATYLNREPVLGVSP
T1 sequence (P28472 26-473 partner): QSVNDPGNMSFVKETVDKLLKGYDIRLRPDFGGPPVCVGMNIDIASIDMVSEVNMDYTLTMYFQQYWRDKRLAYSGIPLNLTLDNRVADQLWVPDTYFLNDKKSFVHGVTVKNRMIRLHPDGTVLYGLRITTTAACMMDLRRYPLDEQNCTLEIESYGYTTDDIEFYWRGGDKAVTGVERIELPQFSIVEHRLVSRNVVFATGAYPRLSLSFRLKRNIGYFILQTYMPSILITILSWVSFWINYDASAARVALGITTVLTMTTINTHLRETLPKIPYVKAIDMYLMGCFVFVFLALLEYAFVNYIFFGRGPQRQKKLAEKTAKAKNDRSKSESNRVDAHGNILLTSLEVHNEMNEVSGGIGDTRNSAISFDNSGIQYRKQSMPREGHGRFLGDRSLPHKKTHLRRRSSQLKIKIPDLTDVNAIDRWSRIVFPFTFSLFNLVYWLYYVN
T1 sequence (P18507 40-467 partner limits assumed): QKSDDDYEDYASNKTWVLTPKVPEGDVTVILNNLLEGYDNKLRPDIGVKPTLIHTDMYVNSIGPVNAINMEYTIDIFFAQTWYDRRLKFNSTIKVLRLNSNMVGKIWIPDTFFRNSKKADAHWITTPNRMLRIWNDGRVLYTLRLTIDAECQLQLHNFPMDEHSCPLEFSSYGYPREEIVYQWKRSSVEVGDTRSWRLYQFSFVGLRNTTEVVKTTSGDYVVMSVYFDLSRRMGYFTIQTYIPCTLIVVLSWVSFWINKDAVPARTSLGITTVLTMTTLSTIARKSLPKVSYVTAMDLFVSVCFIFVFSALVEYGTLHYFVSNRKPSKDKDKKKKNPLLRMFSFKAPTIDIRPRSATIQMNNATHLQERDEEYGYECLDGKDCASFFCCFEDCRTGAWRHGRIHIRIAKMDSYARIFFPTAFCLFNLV
From the text: GABA-A receptor modulators show in functional assays a positive modulation of GABA-induced signals. This modulation can be determined in vitro, e.g., at recombinant GABA-A receptors expressed in a mammalian cell line, e.g. by measurement of GABA-A receptor induced changes of the trans-membrane voltage, when using a voltage-sensitive dye and a fluorescence detection system (Adkins, C. E., Pillai, G. V., Kerby, J., Bonnert, T. P., Haldon, C., Mckernan, R. M., Gonzalez, J. E., Oades, K., Whiting, P. J. & Simpson, P. B. [2001]. alpha4beta3delta GABA-A receptors characterized by fluorescence resonance energy transfer-derived measurements of membrane potential. J. Biol. Chem., 276, 38934-38939). In this assay, a modulator compound is pre-applied at different concentrations ranging from 0.1 nM to 10 μM to cells expressing GABA-A receptors and loaded with the voltage-sensitive dye, before, or at the same time as, a sub-maximal concentration of GABA (in the range of from 0.1 to 10 μM) is applied to the cells. The fluorescent signal is correlated with the degree of GABA-A receptor channel opening. This allows the quantification of effects induced by the modulator in a functional manner. By expression of different GABA-A receptor subunit combinations, the differential efficacy of a modulator at different GABA-A receptor variants can be tested. […]

[2] = molecular target: T2, alpha1 subunit of the GABA-A receptor together with a beta and a gamma subunit (Homo sapiens, UniProt P14867); experiment: GABA-A receptor modulation, voltage-sensitive dye fluorescence assay (alpha1); format: cell-based; conditions: transfected eukaryotic cell line; sub-maximal concentration of GABA; fluorescent signal of voltage-sensitive dye
T2 construct: expressed in transfected cells
T2 sequence (P14867 28-456): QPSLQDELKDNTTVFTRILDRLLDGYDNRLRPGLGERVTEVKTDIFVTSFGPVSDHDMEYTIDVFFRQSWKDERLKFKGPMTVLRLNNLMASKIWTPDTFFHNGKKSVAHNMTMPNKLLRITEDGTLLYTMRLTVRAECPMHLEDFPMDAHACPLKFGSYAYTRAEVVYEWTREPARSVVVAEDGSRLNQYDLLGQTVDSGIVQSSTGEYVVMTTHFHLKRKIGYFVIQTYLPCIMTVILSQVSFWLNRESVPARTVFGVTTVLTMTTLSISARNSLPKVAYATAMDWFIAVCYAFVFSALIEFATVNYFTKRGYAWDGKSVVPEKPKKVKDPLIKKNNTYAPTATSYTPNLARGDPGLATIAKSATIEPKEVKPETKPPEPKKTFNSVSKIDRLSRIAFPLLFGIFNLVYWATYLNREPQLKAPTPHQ
T2 sequence (P47870 25-512 partner limits assumed): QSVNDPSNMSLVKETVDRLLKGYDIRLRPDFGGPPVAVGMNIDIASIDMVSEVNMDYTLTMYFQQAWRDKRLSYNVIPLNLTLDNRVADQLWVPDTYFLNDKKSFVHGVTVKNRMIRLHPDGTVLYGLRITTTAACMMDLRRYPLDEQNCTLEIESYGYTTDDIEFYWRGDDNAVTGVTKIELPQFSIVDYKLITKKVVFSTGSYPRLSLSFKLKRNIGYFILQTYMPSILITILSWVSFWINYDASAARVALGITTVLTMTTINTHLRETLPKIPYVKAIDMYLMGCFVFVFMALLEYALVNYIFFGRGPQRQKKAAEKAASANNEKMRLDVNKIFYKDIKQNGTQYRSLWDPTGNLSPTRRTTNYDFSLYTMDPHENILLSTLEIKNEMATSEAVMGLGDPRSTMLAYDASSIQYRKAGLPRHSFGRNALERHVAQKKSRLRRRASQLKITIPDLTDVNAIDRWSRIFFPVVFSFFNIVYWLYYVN
T2 sequence (P18507 40-467 partner limits assumed): T1 sequence (P18507 40-467 partner limits assumed)

- modulation of the GABA-induced response, alpha2 subunit [1]: 140%
- modulation of the GABA-induced response, alpha1 subunit [2]: 37%
SMILES: Clc1ccc(-n2nc3c4c(ncc3c2OCc2ccccc2Cl)CCCC4)cc1 [Example 1, 3-(2-Chloro-benzyloxy)-2-(4-chloro-phenyl)-6,7,8,9-tetrahydro-2H-pyrazolo[4,3-c]quinoline]
